In PMC12040169 (PLOS Biology, 2025):

Test: in vitro
Settings: human, hela cells, % viability

Compound | viability at 28.5 h, 10 µM [%]
CCN(CC)C(=O)CN1CCC(Oc2cncc(OCc3cccnc3)n2)C1 (stereo not drawn) [CBK084461] | 92.4
CNC(=O)C1(Cc2ccc(-c3cccc(C)c3)cc2)CCN(C(=O)C(C)(C)C)CC1 [CBK285755] | 98.6
O=C(Cc1ccccc1)N1CCN(S(=O)(=O)N2CCOCC2)CC1 [CBK268857] | 108
CN(/N=C/c1cc(Br)cs1)c1ccc(Cl)nn1 [CBK028729] | 94.1
CN1C2CCCC1CC(OC(=O)c1cccc3nc[nH]c13)C2 (stereo not drawn) [CBK090162] | 99.3
COc1ccc(-c2cc(C(=O)N[C@H]3CCN(Cc4ccccc4)C3)cnc2-c2ccccc2)cn1 [CBK037605] | 93.9
O=C(NCCCn1ccnc1)c1ncoc1-c1ccccc1F [CBK283917] | 96
Cc1sc2nc(C(C)N3CCN(Cc4ccco4)CC3)[nH]c(=O)c2c1C (stereo not drawn) [CBK306066] | 93.7
COc1ccc2[nH]c3c(c2c1)CCNC31CCCN(Cc2ccc(OC(F)(F)F)cc2)C1 (stereo not drawn) [CBK039387] | 113
Cc1ccc(Cc2cnc(NC(=O)C3CCCO3)s2)cc1Cl (stereo not drawn) [CBK305013] | 96
COc1ccc(S(=O)(=O)NC(C)C(=O)Nc2cc(Cl)ccc2OC)cc1 (stereo not drawn) [CBK269479] | 104
O=C(Nc1cccnc1)c1ccc(F)cc1Cl [CBK288246] | 89.9
Cc1ccc(C)c(OCCNS(=O)(=O)c2cc([N+](=O)[O-])ccc2C)c1 [CBK267393] | 87.1
COCCCn1c(=O)[nH]c2ncc(-c3cc(OC)c(OC)c(OC)c3)nc21 [CBK064937] | 91.8
Fc1cc(Br)ccc1-c1cn(-c2ccc(Oc3ccccc3)cc2)nn1 [CBK113145] | 89.5
O=c1cc(O)c2sc3nc(-c4ccco4)cc(C(F)(F)F)c3c2[nH]1 [CBK270223] | 98.2
Cc1ccc(CN2C(=O)CC(Sc3ncccc3C(=O)O)C2=O)cc1 (stereo not drawn) [CBK270006] | 91.2
N#Cc1c(NC(=O)CSc2nnc3c(n2)[nH]c2ccccc23)sc2c1CCCC2 [CBK262417] | 93
COc1ccc2[nH]cc(CCNC(=O)[C@H](CC(C)C)NC(C)=O)c2c1 [CBK116210] | 107
O=C(c1ncoc1-c1ccc(F)cc1)N1CCN2CCCCC2C1 (stereo not drawn) [CBK282400] | 96.2
COC(=O)c1cccc(OCC(O)Cn2nc(C)c(C)c(C#N)c2=O)c1 (stereo not drawn) [CBK305563] | 85.3
COC(=O)c1ccc(S(=O)(=O)N2CCc3ccccc3C2)cc1 [CBK068696] | 109
COc1ccc(NC(=O)N(CCO)C2CCCCC2)c(OC)c1 [CBK008768] | 90.9

Compound | viability at 28.5 h, 10 µM [%]
CC(NC(=O)c1ccccc1)c1nnc(SCC(=O)c2ccccc2)n1C (stereo not drawn) [CBK269644] | 82.3
c1c2c(cc3sc(N4CCCC4)nc13)OCCO2 [CBK287496] | 69.6
CCC(c1cccc(OC)c1)N(C)C(=O)CC1CCN(c2nc(C)cc(C)n2)CC1 (stereo not drawn) [CBK286255] | 99.7
O=C(O)c1ccc(CSc2nnc(Cc3ccccc3)[nH]2)o1 [CBK269208] | 99.3
O=C(Cn1cc(C(=S)N2CCOCC2)c2ccccc21)Nc1ccc2c(c1)OCO2 [CBK266703] | 94.6
O=C1NCC2(CCN(C(=O)c3cccs3)CC2)Oc2ccccc21 [CBK282917] | 100
COc1ccc(CCN2CNc3c(c(=O)n(C)c(=O)n3C)C2)cc1OC [CBK074818] | 86
S=C1NCC(COc2ccc(Cl)cc2)O1 (stereo not drawn) [CBK015647] | 98.9
O=C(c1ccco1)N1C2CCC1CC(O)(c1cccnc1F)C2 (stereo not drawn) [CBK284417] | 98.6
CCN1CCCC1Cn1c(=S)[nH]c2ccccc2c1=O (stereo not drawn) [CBK267849] | 92.8
COc1ccccc1C(=O)N1CCN(Cc2cc(OC)c(O)c(OC)c2)CC1 [CBK263484] | 101
Sc1nnc(COc2ccccc2)n1/N=C/c1ccncc1 [CBK265360] | 100
CN(C)CCNC(=O)NC(c1ccccc1)c1ccccc1 [CBK263505C] | 104
Cc1ccc(NC(=O)Cn2cnc3c(=O)n(C)c(=O)n(C)c32)c(O)c1 [CBK267002] | 102
CC1=CC[C@H]2COC(CN3CCOC3C(C)C)[C@@H]1C2 (stereo partly drawn) [CBK019189] | 122
Cc1cc(/C=C(/C#N)c2ccc(C(=O)O)cc2)c(C)n1-c1ccc(S(N)(=O)=O)cc1 [CBK268896] | 116
COC(=O)c1ccc(-n2cc(-c3cccc(C(F)(F)F)c3)nn2)cc1 [CBK112936] | 90
CC(C)N1CCN(c2nccnc2Cl)CC1 [CBK028901] | 101
CCCn1ncc(C(=O)N2CCc3c([nH]c4ccccc34)C2C)c1C (stereo not drawn) [CBK281546] | 98.3
O=C(CSc1nnc(-c2ccncc2)n1-c1ccccc1)N/N=C/c1ccccc1O [CBK262788] | 85
Nc1c(C(=O)NCc2ccco2)c2nc3ccccc3nc2n1C1CCCC1 [CBK269323] | 106
CCOC(=O)c1sc(NS(=O)(=O)c2cccc(Cl)c2C)nc1-c1ccccc1 [CBK000749] | 92.7
O=C(O)CSCc1ccc(C(=O)O)o1 [CBK263267] | 107

Compound | viability at 28.5 h, 10 µM [%]
Cc1ccc(C(=O)NCC(c2ccccc2Cl)N2CCOCC2)c(=O)[nH]1 (stereo not drawn) [CBK305928] | 99.3
CCOc1ccc(CN2CCNC(=O)C2CC(=O)O)cc1 (stereo not drawn) [CBK269242] | 107
Cc1cc(C)n(CCCNC(=O)Nc2cccnc2)n1 [CBK304820] | 84.6
S=c1[nH]nc(CSc2nc3ccccc3[nH]2)n1-c1ccccc1 [CBK267133] | 87.3
CC(C)C(=O)N1CCC(c2[nH]ncc2-c2ccncc2)CC1 [CBK284237] | 79.6
Cc1ccc(S(=O)(=O)N2CCC3(CC2)OCCO3)cc1Cl [CBK043731] | 97.1
COCCN(Cc1cnn(C)c1)C(=O)Cc1ccc(Cl)cc1 [CBK307407] | 97
COC(=O)CN1N=C(C(C)(C)C)Cn2c(cc3ccccc32)C1=O [CBK284204] | 95.5
Cc1ccc2oc([C@H]3CCN(Cc4ccc(C(=O)O)cc4)C3)nc2c1 [CBK289386] | 100
CN(C)CCNC(=O)CSc1ccccc1 [CBK268426] | 98.6
COc1cc(NC(=O)c2ccc3c(c2)C(=O)N(Cc2ccco2)C3=O)c(C(=O)O)cc1OC [CBK267436] | 105
O=C(O)c1ccc(-c2c(Cl)cc([N+](=O)[O-])cc2Cl)o1 [CBK026623] | 102
Cc1ccc(-c2csc(NC(=O)CN3C(=O)CCC3=O)n2)cc1 [CBK287346] | 98.3
COc1ccc(C(=O)Nc2ccc3[nH]ccc3c2)cc1Cl [CBK159681] | 94
O=C(CN1CCC(C(=O)NC(c2ccccc2)c2ccsc2)CC1)c1ccc(F)cc1 (stereo not drawn) [CBK148432] | 86.9
CCNS(=O)(=O)c1ccc(NS(=O)(=O)c2cc(C(=O)O)ccc2C)cc1 [CBK295296] | 82.8
CC1=NNC(=O)C1Cc1c(Cl)cccc1Cl (stereo not drawn) [CBK067754] | 109
O=C(Nc1cccc(-c2nc3ncccc3o2)c1)c1ccc(Cl)c([N+](=O)[O-])c1 [CBK262845] | 88.8
C=C(C)CN1CCN(C(=O)C2Cc3cc(Cl)ccc3O2)CC1 (stereo not drawn) [CBK282639] | 89
CC(C(=O)Nc1c(F)cc(F)cc1OC1CCNCC1)c1ccccc1 (stereo not drawn) [CBK045896T] | 103
O=C(O)CCCC(=O)Nc1ccccc1C(=O)NCc1ccco1 [CBK299840] | 85.8
CC(=O)c1ccc(-c2nccnc2NCc2ccc(C(F)(F)F)cc2)s1 [CBK037983] | 99.2
Cc1cc(C(=O)O)ccc1-c1ccc(/C=N/n2cnnc2)o1 [CBK264713] | 92.5

Compound | viability at 28.5 h, 10 µM [%]
COc1ccc(-c2cc(C(=O)NC3CCCCC3C)c3ccccc3n2)cc1 (stereo not drawn) [CBK294459] | 107
CC(C)C(N)c1nnc(SCc2ccccc2Cl)o1 (stereo not drawn) [CBK270121C] | 92
Cc1ccc2nc(-c3ccc(NC(=O)CSc4nnc(C)s4)cc3)sc2c1 [CBK266185] | 92.5
O=C(O)C1CCN(C(=O)CSc2nc3ccccc3o2)CC1 [CBK286557] | 91.6
Cn1c(SCCN2CCOCC2)nnc1-c1cccs1 [CBK010243] | 89.3
COc1ccc2c(c1OC)C(=O)N(c1ncc(C)s1)C2 [CBK109943] | 99
CCCc1ccc(S(=O)(=O)N(c2ccccc2)C2CCNCC2)cc1 [CBK165121T] | 108
Cc1cc(-c2cncc(-c3ccc(O)cc3)n2)ccc1S(=O)(=O)N1CCOCC1 [CBK131460] | 92.4
Cc1ccc2cc(CN(CCNC(=O)OC(C)(C)C)C(=O)NCc3ccccc3)c(=O)[nH]c2c1C [CBK132097] | 90.2
COc1ccc(-c2cncc(N3CCCC3CO)n2)cc1 (stereo not drawn) [CBK037223] | 112
CCn1nc(C)c(-c2cncn2CCn2nc(C)c(C)c2C)c1C [CBK281782] | 98.8
CS(=O)(=O)N1C[C@@H]2CCCCN(Cc3cccc(F)c3F)[C@@H]2C1 [CBK285513] | 95.6
CCC(C)c1ccc(NC(=S)NCCn2cc(Cl)cn2)cc1 (stereo not drawn) [CBK267101] | 90.7
O=c1/c(=C/c2ccc3c(c2)OCO3)sc2nc3cc(Br)cnc3n12 [CBK262550] | 106
N#Cc1ccsc1NC(=O)CN1CCC(CNc2ccccn2)C1 (stereo not drawn) [CBK306117] | 105
CN(C)c1nc(NCc2ccccc2)nc(SCC(=O)Nc2ccccc2Cl)n1 [CBK267190] | 93.3
O=C(O)C1CC=CCC1C(=O)Nc1ccc(S(=O)(=O)N2CCc3ccccc32)cc1 (stereo not drawn) [CBK268122] | 108
O=C(O)CCC(NC(=O)c1ccc(-c2ccc(F)cc2)s1)C(=O)O (stereo not drawn) [CBK295172] | 102
CC1(NC(=O)CC2C(=O)NCCN2Cc2cccc(F)c2)CCC1 (stereo not drawn) [CBK281611] | 80.9
CCOC(=O)NC(NCc1ccco1)(C(F)(F)F)C(F)(F)F [CBK057654] | 102
O=C(Nc1ccc(Cc2ccncc2)cc1)c1sc2c([N+](=O)[O-])cccc2c1Cl [CBK269635] | 97.1
